{"source": "paper PMC7655571", "about": "“Acetylcholinesterase inhibition in electric eel and human donor blood: an in vitro approach to investigate interspecies differences and human variability in toxicodynamics” (Archives of Toxicology, 2020)", "key": {"[1]": {"molecular_target": "T1, Electrophorus electricus AChE (Electrophorus electricus, UniProt O42275)", "T1 construct": "purchased Sigma-Aldrich C2888", "T1 sequence (O42275 24-633)": "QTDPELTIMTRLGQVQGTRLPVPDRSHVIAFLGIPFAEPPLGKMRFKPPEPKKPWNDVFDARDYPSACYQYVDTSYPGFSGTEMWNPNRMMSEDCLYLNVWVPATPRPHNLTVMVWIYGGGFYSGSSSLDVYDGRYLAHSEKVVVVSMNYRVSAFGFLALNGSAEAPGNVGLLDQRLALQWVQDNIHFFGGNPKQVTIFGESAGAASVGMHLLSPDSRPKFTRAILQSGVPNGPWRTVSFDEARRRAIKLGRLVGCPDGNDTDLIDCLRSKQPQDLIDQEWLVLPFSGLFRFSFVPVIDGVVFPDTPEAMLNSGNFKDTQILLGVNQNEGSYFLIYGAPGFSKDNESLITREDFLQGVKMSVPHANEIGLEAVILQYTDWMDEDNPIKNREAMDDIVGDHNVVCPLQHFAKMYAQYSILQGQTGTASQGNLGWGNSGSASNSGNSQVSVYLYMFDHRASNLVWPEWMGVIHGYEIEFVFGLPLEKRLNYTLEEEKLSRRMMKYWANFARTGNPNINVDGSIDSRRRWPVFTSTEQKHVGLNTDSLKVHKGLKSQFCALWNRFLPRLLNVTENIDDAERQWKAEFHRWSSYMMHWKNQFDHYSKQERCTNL", "assay": "AChE inhibition, electric eel enzyme (Ellman method)", "type": "biochemical", "settings": "for AChE inhibition (in words), electric eel: concentration–response curves"}, "[2]": {"system": "electric eel AChE", "settings": "cited from earlier work"}, "[3]": {"system": "human AChE (neocortex)", "settings": "source: neocortex; ref Jackisch et al. [2009]; cited from earlier work"}, "[4]": {"settings": "measured or estimated in plasma following human exposure, cited from earlier work"}, "[5]": {"molecular_target": "T2, human blood AChE (Homo sapiens, UniProt P22303)", "T2 construct": "90 µL undiluted blood in a 48-wells plate; from tissue; host or cells: venous EDTA whole blood from healthy human donors, lysed and diluted in Triton X-100 buffer", "T2 sequence (P22303 32-617 isoform P22303-2 limits assumed)": "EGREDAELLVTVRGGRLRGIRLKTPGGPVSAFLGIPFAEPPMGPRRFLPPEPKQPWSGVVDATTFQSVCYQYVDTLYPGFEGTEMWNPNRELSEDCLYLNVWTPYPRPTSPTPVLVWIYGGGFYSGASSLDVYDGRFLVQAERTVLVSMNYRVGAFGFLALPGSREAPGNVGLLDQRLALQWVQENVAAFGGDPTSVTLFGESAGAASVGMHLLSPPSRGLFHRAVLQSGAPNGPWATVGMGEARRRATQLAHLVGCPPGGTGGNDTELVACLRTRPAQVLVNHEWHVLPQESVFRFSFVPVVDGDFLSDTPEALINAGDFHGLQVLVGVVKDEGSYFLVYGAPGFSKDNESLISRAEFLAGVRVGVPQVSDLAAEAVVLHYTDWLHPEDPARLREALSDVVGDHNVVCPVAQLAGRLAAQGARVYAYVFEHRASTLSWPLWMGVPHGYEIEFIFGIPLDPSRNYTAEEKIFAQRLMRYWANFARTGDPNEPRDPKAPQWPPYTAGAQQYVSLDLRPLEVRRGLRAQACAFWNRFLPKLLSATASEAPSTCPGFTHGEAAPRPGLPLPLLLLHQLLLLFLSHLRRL", "assay": "AChE inhibition in human donor whole blood (Ellman method)", "type": "biochemical", "settings": "for AChE inhibition (in words), human blood: concentration–response curves"}, "[6]": {"molecular_target": "human AChE (recombinant enzyme)", "settings": "source: recombinant enzyme; ref Li et al. ([2019]); cited from earlier work"}, "[7]": {"settings": "30 min exposure, room temperature"}, "[8]": {"settings": "IC50 Human, whole blood, average of 20 donors"}}, "note": "“Also recorded” adds a separate entry of the source. Like-named read-outs stand apart in the source and are kept apart here.", "data": [{"compound": "CCN(C)C(=O)Oc1cccc([C@H](C)N(C)C)c1", "note": "[RI, rivastigmine]", "values": [{"measurement": "IC20", "setting": "[1]; [7]", "result": 16, "unit": "µM"}, {"measurement": "AChE inhibition (in words), electric eel", "setting": "[1]", "result": "show inhibition of AChE"}, {"measurement": "IC50", "setting": "[2]; ref Imramovsky et al. [2012]", "result": "[…]"}, {"measurement": "IC50", "setting": "[2]; ref Kratky et al. [2018]", "result": "[…]"}, {"measurement": "IC50", "setting": "[3]", "result": "[…]"}, {"measurement": "In vivo concentration", "setting": "[4]; ref Hossain et al. ([2002])", "result": "[…]"}, {"measurement": "In vivo concentration", "setting": "[4]; ref Lefèvre et al. ([2016])", "result": "[…]"}]}, {"compound": "CCOP(=S)(OCC)Oc1cc(C)nc(C(C)C)n1", "note": "[DZN, diazinon]", "values": [{"measurement": "IC50", "setting": "[1]", "result": "> 8.5", "unit": "µM"}, {"measurement": "AChE inhibition (in words), electric eel", "setting": "[1]", "result": "do not show any AChE inhibition; also recorded: did not inhibit AChE"}, {"measurement": "AChE inhibition (in words), electric eel", "setting": "[1]; listed as diazinon", "result": "did not show inhibition"}, {"measurement": "IC50", "setting": "[2]; ref Assis et al. ([2012])", "result": 0.3, "unit": "µM"}, {"measurement": "IC50", "setting": "[2]; ref Čolović et al. ([2011])", "result": "> 200", "unit": "µM"}, {"measurement": "IC50", "setting": "[5]; [8]", "result": "> 10", "unit": "µM"}, {"measurement": "AChE inhibition (in words), human blood", "setting": "[5]", "result": "do not inhibit AChE activity; also recorded: do not show any AChE inhibition; also recorded: did not inhibit AChE"}, {"measurement": "AChE inhibition (in words), human blood", "setting": "[5]; listed as diazinon", "result": "did not show inhibition"}, {"measurement": "IC50", "setting": "[6]", "result": 38, "unit": "µM"}, {"measurement": "In vivo concentration", "setting": "[4]; ref Buratti et al. ([2003])", "result": "≤ 10", "unit": "µM"}]}, {"compound": "Cc1nc(N(C)C)nc(OC(=O)N(C)C)c1C", "note": "[PI, pirimicarb]", "values": [{"measurement": "IC20", "setting": "[1]; [7]", "result": 9.9, "unit": "µM"}, {"measurement": "IC50", "setting": "[1]; 30 min exposure, room temperature, 3–4 independent experiments, read-out: IC50 Electric eel", "result": 61, "unit": "µM"}, {"measurement": "AChE inhibition (in words), electric eel", "setting": "[1]", "result": "show inhibition of AChE"}, {"measurement": "IC50", "setting": "[5]; [8]", "result": 20, "unit": "µM"}, {"measurement": "IC50", "setting": "[5]; IC50 Value, donor 1", "result": 19, "unit": "µM"}, {"measurement": "IC50", "setting": "[5]; IC50 Value, donor 2", "result": 19, "unit": "µM"}, {"measurement": "IC50", "setting": "[5]; IC50 Value, donor 3", "result": 17, "unit": "µM"}, {"measurement": "IC50", "setting": "[5]; IC50 Value, donor 4", "result": 22, "unit": "µM"}, {"measurement": "IC50", "setting": "[5]; IC50 Value, donor 5", "result": 17, "unit": "µM"}, {"measurement": "IC50", "setting": "[5]; IC50 Value, donor 6", "result": 24, "unit": "µM"}, {"measurement": "IC50", "setting": "[5]; IC50 Value, donor 7", "result": 23, "unit": "µM"}, {"measurement": "IC50", "setting": "[5]; IC50 Value, donor 8", "result": 26, "unit": "µM"}, {"measurement": "IC50", "setting": "[5]; IC50 Value, donor 9", "result": 15, "unit": "µM"}, {"measurement": "IC50", "setting": "[5]; IC50 Value, donor 11", "result": 29, "unit": "µM"}, {"measurement": "IC50", "setting": "[5]; IC50 Value, donor 12", "result": 18, "unit": "µM"}, {"measurement": "IC50", "setting": "[5]; IC50 Value, donor 13", "result": 19, "unit": "µM"}, {"measurement": "IC50", "setting": "[5]; IC50 Value, donor 14", "result": 15, "unit": "µM"}, {"measurement": "IC50", "setting": "[5]; IC50 Value, donor 15", "result": 16, "unit": "µM"}, {"measurement": "IC50", "setting": "[5]; IC50 Value, donor 16", "result": 14, "unit": "µM"}, {"measurement": "IC50", "setting": "[5]; IC50 Value, donor 17", "result": 16, "unit": "µM"}, {"measurement": "IC50", "setting": "[5]; IC50 Value, donor 18", "result": 22, "unit": "µM"}, {"measurement": "IC50", "setting": "[5]; IC50 Value, donor 19", "result": 28, "unit": "µM"}, {"measurement": "IC50", "setting": "[5]; IC50 Value, donor 20", "result": 19, "unit": "µM"}, {"measurement": "AChE inhibition (in words), human blood", "setting": "[5]", "result": "show inhibition of AChE"}, {"measurement": "Coefficient of variation (CV) C1 Human", "setting": "[5]; human variability in AChE inhibition, concentration level C1 (Table S2)", "result": 5.8, "unit": "%"}, {"measurement": "Coefficient of variation (CV) C2 Human", "setting": "[5]; human variability in AChE inhibition, concentration level C2 (Table S2)", "result": 6.0, "unit": "%"}, {"measurement": "Coefficient of variation (CV) C3 Human", "setting": "[5]; human variability in AChE inhibition, concentration level C3 (Table S2)", "result": 6.9, "unit": "%"}, {"measurement": "Coefficient of variation (CV) C4 Human", "setting": "[5]; human variability in AChE inhibition, concentration level C4 (Table S2)", "result": 5.7, "unit": "%"}, {"measurement": "Coefficient of variation (CV) C5 Human", "setting": "[5]; human variability in AChE inhibition, concentration level C5 (Table S2)", "result": 5.8, "unit": "%"}, {"measurement": "Coefficient of variation (CV) C6 Human", "setting": "[5]; human variability in AChE inhibition, highest concentration C6 (Table S2)", "result": 6.6, "unit": "%"}, {"measurement": "Human uncertainty factor (UF) UF97.5", "setting": "[5]; interindividual differences, concentration closest to the IC20, 95% CI in brackets", "result": "1.8 [1.5–2.1]"}, {"measurement": "IC20", "setting": "[5]; read-out: IC20 Human, whole blood, average of 20 donors", "result": 7.1, "unit": "µM"}, {"measurement": "IC20", "setting": "[5]; read-out: IC20 Value, donor 1", "result": 8.6, "unit": "µM"}, {"measurement": "IC20", "setting": "[5]; read-out: IC20 Value, donor 2", "result": 6.4, "unit": "µM"}, {"measurement": "IC20", "setting": "[5]; read-out: IC20 Value, donor 3", "result": 5.8, "unit": "µM"}, {"measurement": "IC20", "setting": "[5]; read-out: IC20 Value, donor 4", "result": 8, "unit": "µM"}, {"measurement": "IC20", "setting": "[5]; read-out: IC20 Value, donor 5", "result": 5.9, "unit": "µM"}, {"measurement": "IC20", "setting": "[5]; read-out: IC20 Value, donor 6", "result": 9.3, "unit": "µM"}, {"measurement": "IC20", "setting": "[5]; read-out: IC20 Value, donor 7", "result": 6.4, "unit": "µM"}, {"measurement": "IC20", "setting": "[5]; read-out: IC20 Value, donor 8", "result": 8.1, "unit": "µM"}, {"measurement": "IC20", "setting": "[5]; read-out: IC20 Value, donor 9", "result": 4.2, "unit": "µM"}, {"measurement": "IC20", "setting": "[5]; read-out: IC20 Value, donor 10", "result": 5.3, "unit": "µM"}, {"measurement": "IC20", "setting": "[5]; read-out: IC20 Value, donor 11", "result": 7, "unit": "µM"}, {"measurement": "IC20", "setting": "[5]; read-out: IC20 Value, donor 12", "result": 8.8, "unit": "µM"}, {"measurement": "IC20", "setting": "[5]; read-out: IC20 Value, donor 13", "result": 4.7, "unit": "µM"}, {"measurement": "IC20", "setting": "[5]; read-out: IC20 Value, donor 14", "result": 6.1, "unit": "µM"}, {"measurement": "IC20", "setting": "[5]; read-out: IC20 Value, donor 15", "result": 6, "unit": "µM"}, {"measurement": "IC20", "setting": "[5]; read-out: IC20 Value, donor 16", "result": 5.9, "unit": "µM"}, {"measurement": "IC20", "setting": "[5]; read-out: IC20 Value, donor 17", "result": 4.8, "unit": "µM"}, {"measurement": "IC20", "setting": "[5]; read-out: IC20 Value, donor 18", "result": 9.2, "unit": "µM"}, {"measurement": "IC20", "setting": "[5]; read-out: IC20 Value, donor 19", "result": 18, "unit": "µM"}, {"measurement": "IC20", "setting": "[5]; read-out: IC20 Value, donor 20", "result": 3.4, "unit": "µM"}, {"measurement": "In vivo concentration", "setting": "[4]; ref Hoffmann et al. ([2008])", "result": "≤ 300", "unit": "µM"}]}]}
